# Columns and labels:
# [1] = test system: 5×FAD mice; assay: Cognitive function analysis, Y-shaped maze score of alternation behavior; assay type: in vivo, mouse; conditions: tested at 6 months of age
# Description: The administration of AAV-YAPΔC-ins61 or AAV-NINS (titer: 1×10^10 vector genomes/mL each, 1 μL) to mouse RSD (retrosplenial cortex) (depth of −2.0 mm from the bregma and 0.6 mm mediolaterally) and the subarachnoidal administration of S1P (40 nM, 0.15 μL/hr; manufactured by Sigma-Aldrich Co. LLC) or control artificial cerebrospinal fluid (aCSF) (0.15 μL/hr; manufactured by Alzet Osmotic Pressures) to the mice were performed according to the method described in the document “Yang, G. et al., Nat Protoc 5, 201-208 (2010)”. The administration of AAV-YAPΔC-ins61 or AAV-NINS to the mice was performed at 1 or 5 months of age. The administration of S1P to the mice was continuously performed for a period from 1 to 6 months of age or for a period from 5 to 6 months of age.
# The normal mice (non-transgenic B6/SJL mice) or the 5×FAD mice given AAV-YAPΔC-ins61 or AAV-NINS, or S1P were tested for their exploratory behavior when aged 6 months using a Y-shaped maze (manufactured by O'HARA & Co., Ltd.) in which three arms of the same size were joined at […]
# A value obtained by dividing the number of movements from the immediately preceding arm where the mouse stayed to an arm different from the immediately preceding arm where the mouse stayed by the number of movements in the arms was calculated as the rate of spontaneous alternation (score of alternation behavior; see FIG. 14).
# [2] = test system: nuclear YAP in brain neurons of 5×FAD mice; assay: Amounts of nuclear YAP in brain neurons by immunohistochemical staining; assay type: in vivo, mouse; conditions: 5×FAD mice given at 1 month of age, measured at 6 months of age, vs 5×FAD mice without administration (FIG. 10)
# Description: (§1) Brain tissues were excised from the test subjects or the AD mouse models and fixed in a 4% PFA (paraformaldehyde) solution. Then, 5 µm thick paraffin sections were prepared using a microtome (manufactured by Yamato Kohki Industrial Co., Ltd.). […] Fluorescence signals derived from each primary antibody were detected using a fluorescence microscope (IX70, manufactured by Olympus Corp.) or a confocal laser scanning microscope (FV1200, manufactured by Olympus Corp.) to obtain images (specifically, YAP images, phosphorylated LATS1 serine 909 (Ser909) [pLATS1] images, images of the detected DAPI fluorescence signals derived from the cells nuclei (DAPI images), and overlaid images thereof (merged images). In the DAPI images, cells having the deformed and/or shrunk cell nuclei were evaluated as necrotic cells, and the numbers of necrotic cells in 30 fields of view (143 μm×143 μm) were measured to calculate a necrotic cell number per field of view (see the ordinates of FIGS. 5A to 5C). […]
# [3] = test system: ER in brain neurons of 5×FAD mice; assay: In vivo imaging of ER volumes in brain neurons (ER-Tracker Red); parameters: species or system mouse; conditions: 5×FAD mice given at 1 month of age, measured at 6 months of age (FIGS. 13 and 15)
# Description: The skull bones on RSD surface of normal mice (non-transgenic B6/SJL mice) or 5×FAD mice were removed using a high-speed microdrill. 1 μL of a liquid containing 100 nM amyloid-binding substance BTA1 (2-(4′-(methylamino)phenyl) benzothiazole, manufactured by Sigma-Aldrich Co. LLC) and 100 nM ER-Tracker Red (E34250, manufactured by Thermo
# Fisher Scientific Inc.) was injected to RSD in the presence of 1% isoflurane (anesthetic). 4 hours later, ER-Tracker Red was imaged using an upright microscope (BX61WI, manufactured by Olympus Corp.) and a scanning laser microscope system FV1000MPE2 (manufactured by Olympus Corp.) equipped with an immersion objective lens (XLPlanN25xW, numerical aperture: 1.05) and a pulse laser (MaiTaiHP DeepSee, manufactured by Spectra-Physics, Inc.) to obtain images of detected BTA1 fluorescence signals (BTA1 images) and images of detected ER-Tracker Red fluorescence signals (ER-Tracker images). The fluorescence signal volumes of ER-Tracker Red (i.e., volumes of ER) were measured. […]
# [4] = test system: pSer46-MARCKS in brain neurons of 5×FAD mice; assay: pSer46-MARCKS levels of brain neurons by immunohistochemical staining; assay type: in vivo, mouse; conditions: 5×FAD mice given at 1 month of age, measured at 6 months of age, vs 5×FAD mice without administration (FIG. 16)
# [5] = test system: extracellular amyloid β in brain tissues of 5×FAD mice; assay: Extracellular amyloid β levels of brain tissues by immunohistochemical staining; assay type: in vivo, mouse; conditions: 5×FAD mice given at 1 month of age, measured at 6 months of age, vs 5×FAD mice without administration (FIG. 11)
# Description: as §1
compound,measurement,setting,value
"CCCCCCCCCCCCC/C=C/[C@@H](O)[C@@H](N)COP(=O)(O)O [SiP, sphingosine 1-phosphate]","cognitive functions (score of alternation behavior, Y-shaped maze)","[1]; 5×FAD mice given at 1 month of age, vs 5×FAD mice without administration (FIGS. 17A and 17B)",equivalent to the ones of normal mice
same,"cognitive functions (score of alternation behavior, Y-shaped maze)","[1]; 5×FAD mice given at 5 months of age, vs 5×FAD mice without administration (FIGS. 17C and 17D)",equivalent to the ones of normal mice
same,amounts of nuclear YAP in brain neurons,[2],increased and/or restored to the levels of normal mice
same,ER dilation and instability in brain neurons,[3],significantly resolved ER dilation and instability
same,pSer46-MARCKS levels of brain neurons,[4],decreased to the levels of normal mice
same,extracellular amyloid β levels of brain tissues,[5],lower

# Reference: patent publication US20220296620A1, “AGENT FOR PREVENTING OR TREATING MILD COGNITIVE IMPAIRMENT” (NATIONAL UNIVERSITY CORPORATION TOKYO MEDICAL AND DENTAL …, priority 2019, published 2022)
